Results taken from US7105554B2, “Benzylidene thiazolidinediones and their use as antimycotic agents” (priority 2000, dated 2006).

Columns and labels:
[1] = tested on: Candida albicans (strain SC5314); assay: G418 Sensitivity Assay; type: cell-based; conditions: concentration giving 50% reduction in cell growth relative to culture with G418 alone, strain SC5314, overnight at 37° C., OD600 nm, 1% DMSO
Protocol: This assay is based upon the observed increased sensitivity of the pmt1−/− Candida strain to Geneticin (G418) (6). 100 μl of a 0.1 OD600 nm culture of Candida albicans (strain SC5314) is placed into a 96 well plate in the presence or absence of varying concentrations of test compound. The compounds are initially dissolved in DMSO and added to the cultures at a final DMSO concentration of 1%. G418 is added to a final concentration of 100 [2 g/ml. In the absence of PMT1 inhibition, this concentration of G418 has no effect on the proliferation of the organism. The cultures are grown overnight at 37° C. and cell density is then estimated by an OD600 nm measurement. The effect of the test compound is calculated as the concentration that gives a 50% reduction in cell growth relative to the culture with G418 alone.

[2] = target: T1, Candida albicans PMT-1 enzyme (Candida albicans, UniProt O74189); assay: PMT-1 Assay; type: biochemical; conditions: transfer of [3H]-mannose from dolicholphosphomannose to peptide DYATAV, Candida albicans membrane protein, 60 minutes at 25° C., pH 8.0; read-out: PMT-1 Inhibition (IC50, microM)
T1 construct: 25 μg of Candida albicans membrane protein; endogenous in cells
Protocol: The assay method is based upon the transfer of a radiolabelled mannose moiety from dolicholphosphomannose onto a threonine hydroxyl residue in a short peptide, as catalysed by the Candida albicans PMT-1 enzyme. Dolicholphospho-[^3H]-mannose is synthesised enzymatically from GDP-[^3H]-mannose and purified by chloroform:methanol extraction.
100000 Dpm of the generated substrate is incubated with 400 μg phosphatidylcholine, 25 μg of peptide (DYATAV) and 25 μg of Candida albicans membrane protein in a final volume of 50 μl in 100 mM Tris/1 mM MgCl2 buffer, pH 8.0. After 60 minutes at 25° C., the reaction is stopped with 50 μl of methanol. The unreacted radiolabel is removed by the addition of 150 μl of 0.4 g/ml octadecyl-functionalised silica (C18) in methanol. The C18 material is removed by centrifugation and the activity transferred to the peptide is counted in the supernatant.

T1 sequence (O74189 whole entry): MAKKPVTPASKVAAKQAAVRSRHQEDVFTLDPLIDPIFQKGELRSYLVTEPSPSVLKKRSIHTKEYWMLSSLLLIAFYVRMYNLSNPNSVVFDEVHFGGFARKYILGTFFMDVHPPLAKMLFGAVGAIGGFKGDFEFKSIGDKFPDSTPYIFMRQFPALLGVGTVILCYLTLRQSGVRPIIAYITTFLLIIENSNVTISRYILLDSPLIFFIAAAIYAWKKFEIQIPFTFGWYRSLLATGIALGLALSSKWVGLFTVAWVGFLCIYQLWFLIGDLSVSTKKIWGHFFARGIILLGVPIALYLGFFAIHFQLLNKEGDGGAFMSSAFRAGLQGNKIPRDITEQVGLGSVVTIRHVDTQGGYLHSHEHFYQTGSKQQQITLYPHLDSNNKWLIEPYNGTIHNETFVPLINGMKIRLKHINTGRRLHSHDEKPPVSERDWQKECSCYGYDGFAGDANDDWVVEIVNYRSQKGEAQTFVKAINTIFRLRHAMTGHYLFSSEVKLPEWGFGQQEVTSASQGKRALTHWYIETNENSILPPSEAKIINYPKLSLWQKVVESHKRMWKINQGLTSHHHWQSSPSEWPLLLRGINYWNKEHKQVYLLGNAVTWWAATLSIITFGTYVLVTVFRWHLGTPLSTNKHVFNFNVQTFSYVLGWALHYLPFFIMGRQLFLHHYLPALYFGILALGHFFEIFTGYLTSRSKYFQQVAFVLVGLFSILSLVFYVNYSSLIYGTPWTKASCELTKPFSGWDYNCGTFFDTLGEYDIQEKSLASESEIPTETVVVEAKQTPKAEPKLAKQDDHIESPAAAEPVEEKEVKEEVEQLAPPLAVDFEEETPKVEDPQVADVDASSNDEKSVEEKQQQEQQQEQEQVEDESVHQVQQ
T1 sequence (Q5ADM9 whole entry, further chain): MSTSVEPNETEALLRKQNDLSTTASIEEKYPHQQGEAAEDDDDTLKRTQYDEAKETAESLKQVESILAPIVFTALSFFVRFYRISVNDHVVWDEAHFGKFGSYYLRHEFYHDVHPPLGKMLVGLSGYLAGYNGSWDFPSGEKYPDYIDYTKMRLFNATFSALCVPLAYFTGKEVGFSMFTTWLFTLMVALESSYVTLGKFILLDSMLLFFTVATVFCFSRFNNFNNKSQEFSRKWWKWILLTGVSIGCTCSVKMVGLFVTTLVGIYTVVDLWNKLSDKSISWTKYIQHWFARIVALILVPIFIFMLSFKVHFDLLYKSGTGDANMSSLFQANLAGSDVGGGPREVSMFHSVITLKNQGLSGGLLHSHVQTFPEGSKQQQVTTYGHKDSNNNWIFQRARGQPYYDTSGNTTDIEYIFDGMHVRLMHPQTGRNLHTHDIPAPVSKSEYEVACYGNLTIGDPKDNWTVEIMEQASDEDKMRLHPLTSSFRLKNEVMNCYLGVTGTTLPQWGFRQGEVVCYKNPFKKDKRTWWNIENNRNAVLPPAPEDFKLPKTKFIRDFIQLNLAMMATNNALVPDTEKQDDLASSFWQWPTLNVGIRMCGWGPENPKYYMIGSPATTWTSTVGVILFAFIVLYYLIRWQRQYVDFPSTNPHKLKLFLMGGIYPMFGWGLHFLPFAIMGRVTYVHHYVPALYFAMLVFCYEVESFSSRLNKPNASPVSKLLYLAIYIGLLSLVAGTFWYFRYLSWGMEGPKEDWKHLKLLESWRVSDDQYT

SMILES | IC50 [1] [nM] | IC50 [2] [µM] | melting point [°C]
O=C(O)CN1C(=O)/C(=C/c2ccc(OCc3cccc(C(F)(F)F)c3)c(OCc3ccccc3)c2)SC1=S [Example 39, 5-[[3-(Phenylmethoxy)-4-[(3-trifluoromethylphenyl)methoxy]phenyl]-methylene]-4-oxo-2-thioxo-3-thiazolidineacetic acid] | 650 | 2 | –
O=C(O)CN1C(=O)/C(=C/c2ccc(OCc3ccc(Cl)cc3)c(OCc3ccccc3)c2)SC1=S [Example 44, 5-[[4-[(4-Chlorophenyl)methoxy] 3-(phenylmethoxy)phenyl]-methylene]-4-oxo-2-thioxo-3-thiazolidineacetic acid] | 600 | 1 | –
C[C@H](COc1ccc(/C=C2\SC(=S)N(CC(=O)O)C2=O)cc1O[C@@H](c1ccccc1)C(F)(F)F)c1ccccc1 [Example 60, 5-[[3-[(S)-1-Phenyl-2,2,2-trifluoroethoxy]-4-[(S)-2-phenylpropoxy]-phenyl]methylene]-4-oxo-2-thioxo-3-thiazolidineacetic acid] | – | – | 73 to 80
O=C(O)CN1C(=O)/C(=C/c2ccc(OCc3ccccc3)c(OCc3ccccc3)c2)SC1=S [Example 29, 5-[[3,4-bis(phenylmethoxy)phenyl]methylene]-4-oxo-2-thioxo-3-thiazolidineacetic acid] | – | – | 235 to 238
O=C(O)CN1C(=O)/C(=C/c2ccc(OCc3ccc(OC(F)(F)F)cc3)c(OCc3ccccc3)c2)SC1=S [Example 42, 5-[[3-(Phenylmethoxy)-4-[(4-trifluoromethoxyphenyl)methoxy]-phenyl]-methylene]-4-oxo-2-thioxo-3-thiazolidineacetic acid] | 350 | 1 | –
